Data taken from US20210318318A1, “Kinase Activity In Tumors” (Institute For Cancer Research d/b/a The Research Institute …, priority 2018, published 2021).

What was measured:
Assay in all cases: MIB/MS kinome profiling of inhibitor-treated OVSAHO cells
Type in all cases: cell-based
Conditions in all cases: 2 μM, 4 hours
[1] = molecular target: T1, ROCK2 (Homo sapiens, UniProt O75116)
T1 construct: endogenous in cells; host or cells: OVSAHO
Protocol: (§1) OVSAHO cells were treated with 2 μM of inhibitor for 4 hours and analyzed by MIB/MS. Scatterplot depicts difference in kinase MIB-binding of drug treated relative to control DMSO as determined by Students T-test.
(§2) MIB-based kinome profiling was performed on several of these molecules in HGSOC cells to determine kinome-wide inhibition profiles.
Experiments using MIB/MS were performed as previously described (Duncan et al., Cell, 2012, 149, 307-321; and Kurimchak et al., Cell Reports, 2016, 16, 1273-1286). Briefly, cells or tumors were lysed on ice in buffer containing 50 mM HEPES (pH 7.5), 0.5% Triton X-100, 150 mM NaCl, 1 mM EDTA, 1 mM EGTA, 10 mM sodium fluoride, 2.5 mM sodium orthovanadate, 1× protease inhibitor cocktail (Roche), and 1% each of phosphatase inhibitor cocktails 2 and 3 (Sigma). Particulate was removed by centrifugation of lysates at 13,000 rpm for 10 minutes at 4° C. and filtration through 0.2 μm syringe filters. Protein concentrations were determined by BCA analysis (Thermo). To compare kinome signatures within and across such large sample sizes, a super-SILAC method was designed (Neubert et al., Nat. Meth., 2010, 7, 361-362) consisting of a cocktail of cancer cell lines that encompasses the activity of the “cancer kinome” to be used as a control for individual samples. […] An equal amount of the HKS was added to the non-labeled sample (cell, tumor or normal tissue) providing a quantitative strategy to compare kinome activity/levels across samples, amongst treatments and, importantly, across time. […]
(§3) Proteolytic peptides were resuspended in 0.1% formic acid and separated with a Thermo RSLC Ultimate 3000 on a Thermo Easy-Spray C18 PepMap 75 μm×50 cm C-18 2 μm column with a 240 minute gradient of 4-25% acetonitrile with 0.1% formic acid at 300 nL/min and 50° C. Eluted peptides were analyzed by a Thermo Q Exactive plus mass spectrometer utilizing a top 15 methodology in which the 15 most intense peptide precursor ions were subjected to fragmentation.

[2] = molecular target: T2, AAK1 (Homo sapiens, UniProt Q2M2I8)
T2 construct: endogenous in cells; host or cells: OVSAHO
T2 sequence (Q2M2I8 whole entry): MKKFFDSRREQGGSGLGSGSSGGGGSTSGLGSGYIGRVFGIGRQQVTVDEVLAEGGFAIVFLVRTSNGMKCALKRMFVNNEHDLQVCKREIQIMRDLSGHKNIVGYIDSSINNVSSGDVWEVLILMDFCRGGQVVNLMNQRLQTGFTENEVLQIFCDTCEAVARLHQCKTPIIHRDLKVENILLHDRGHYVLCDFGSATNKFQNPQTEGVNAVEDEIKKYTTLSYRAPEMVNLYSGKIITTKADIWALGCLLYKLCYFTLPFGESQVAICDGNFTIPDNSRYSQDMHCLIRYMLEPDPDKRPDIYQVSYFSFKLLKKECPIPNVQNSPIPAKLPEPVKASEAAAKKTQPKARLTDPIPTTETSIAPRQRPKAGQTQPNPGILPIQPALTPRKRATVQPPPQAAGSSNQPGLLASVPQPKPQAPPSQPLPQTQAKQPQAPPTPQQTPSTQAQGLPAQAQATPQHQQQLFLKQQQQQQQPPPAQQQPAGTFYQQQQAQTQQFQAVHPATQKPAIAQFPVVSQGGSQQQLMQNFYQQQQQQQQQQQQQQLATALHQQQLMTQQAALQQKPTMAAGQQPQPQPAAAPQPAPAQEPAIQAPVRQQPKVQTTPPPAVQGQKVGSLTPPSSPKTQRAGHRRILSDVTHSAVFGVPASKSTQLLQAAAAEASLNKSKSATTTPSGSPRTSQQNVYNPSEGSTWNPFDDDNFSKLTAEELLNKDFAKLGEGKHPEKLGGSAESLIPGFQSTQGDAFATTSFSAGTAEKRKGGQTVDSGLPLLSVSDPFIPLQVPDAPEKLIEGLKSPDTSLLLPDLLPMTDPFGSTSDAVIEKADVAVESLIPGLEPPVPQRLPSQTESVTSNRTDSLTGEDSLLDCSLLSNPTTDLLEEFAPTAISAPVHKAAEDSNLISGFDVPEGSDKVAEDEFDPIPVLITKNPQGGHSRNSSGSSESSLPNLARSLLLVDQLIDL
Protocol: as §1, §2
(§4) Experiments using MIB/MS were performed as previously described (Duncan et al., Cell, 2012, 149, 307-321; and Kurimchak et al., Cell Reports, 2016, 16, 1273-1286). Briefly, cells or tumors were lysed on ice in buffer containing 50 mM HEPES (pH 7.5), 0.5% Triton X-100, 150 mM NaCl, 1 mM EDTA, 1 mM EGTA, 10 mM sodium fluoride, 2.5 mM sodium orthovanadate, 1× protease inhibitor cocktail (Roche), and 1% each of phosphatase inhibitor cocktails 2 and 3 (Sigma). Particulate was removed by centrifugation of lysates at 13,000 rpm for 10 minutes at 4° C. and filtration through 0.2 μm syringe filters. Protein concentrations were determined by BCA analysis (Thermo). To compare kinome signatures within and across such large sample sizes, a super-SILAC method was designed (Neubert et al., Nat. Meth., 2010, 7, 361-362) consisting of a cocktail of cancer cell lines that encompasses the activity of the “cancer kinome” to be used as a control for individual samples. Five cancer cell lines were selected from the NCI-60 panel (UACC257, MOLT4, COL0205, ACHN and PC3) that differed in their origin, gene expression patterns and mutation status. The cancer cell lines were labeled using SILAC and mixed equally providing a diverse SILAC ([^13C6,^15N4] arginine (Arg^10) and […] (Lys^8)) heavy kinome reference standard (HKS) to be used repeatedly in kinome profiling assays. An equal amount of the HKS was added to the non-labeled sample (cell, tumor or normal tissue) providing a quantitative strategy to compare kinome activity/levels across samples, amongst treatments and, importantly, across time. Endogenous kinases were isolated by flowing lysates over kinase inhibitor-conjugated Sepharose beads (purvalanol B, VI16832, PP58 and CTx-0294885 beads were used) in 10 ml gravity-flow columns. After 2×10 ml column washes in high-salt buffer and 1×10 ml wash in low-salt buffer (containing 50 mM HEPES (pH 7.5), 0.5% Triton X-100, 1 mM EDTA, 1 mM EGTA, and 10 mM sodium fluoride, and 1M NaCl or 150 mM NaCl, respectively), retained kinases were eluted from the column by boiling in 2×500 μL of 0.5% SDS, 0.1 M TrisHCl (pH 6.8), and 1% 2-mercaptoethanol. Eluted peptides were reduced by incubation with 5 mM DTT at 60° C. for 25 minutes, alkylated with 20 mM iodoacetamide at room temperature for 30 minutes in the dark and alkylation was quenched with DTT. Samples were concentrated to approximately 100 μL with Millipore 10 kD cutoff spin concentrators. Detergent was removed by chloroform/methanol extraction, and the protein pellet was resuspended in 100 mM ammonium bicarbonate and digested with sequencing-grade modified trypsin (Promega) overnight at 37° C. […]
as §3, with “fragmentation. […]” for “fragmentation.”

[3] = molecular target: T3, CDK8 (Homo sapiens, UniProt P49336)
T3 construct: endogenous in cells; host or cells: OVSAHO
T3 sequence (P49336 whole entry): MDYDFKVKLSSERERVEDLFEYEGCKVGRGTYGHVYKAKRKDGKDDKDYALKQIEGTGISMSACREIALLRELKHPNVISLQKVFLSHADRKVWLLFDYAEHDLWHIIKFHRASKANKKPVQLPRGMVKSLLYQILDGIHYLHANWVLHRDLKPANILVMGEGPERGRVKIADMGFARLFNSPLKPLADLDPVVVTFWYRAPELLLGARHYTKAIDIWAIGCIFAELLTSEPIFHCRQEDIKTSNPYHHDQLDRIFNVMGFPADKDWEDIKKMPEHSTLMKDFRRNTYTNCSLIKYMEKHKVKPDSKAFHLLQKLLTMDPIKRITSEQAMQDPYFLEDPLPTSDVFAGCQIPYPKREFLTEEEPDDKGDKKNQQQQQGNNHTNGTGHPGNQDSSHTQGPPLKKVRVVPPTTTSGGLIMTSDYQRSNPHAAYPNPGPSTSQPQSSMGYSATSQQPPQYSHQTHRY
T3 sequence (P24863 whole entry partner): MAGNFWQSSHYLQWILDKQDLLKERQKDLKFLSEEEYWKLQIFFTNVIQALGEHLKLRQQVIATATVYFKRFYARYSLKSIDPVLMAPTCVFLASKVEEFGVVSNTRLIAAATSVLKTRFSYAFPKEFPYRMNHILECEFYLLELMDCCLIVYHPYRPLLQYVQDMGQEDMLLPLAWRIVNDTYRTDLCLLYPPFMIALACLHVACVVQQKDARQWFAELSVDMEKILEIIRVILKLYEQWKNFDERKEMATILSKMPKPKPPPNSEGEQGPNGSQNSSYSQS
Protocol: as §1, §2, §4
as §3, with “fragmentation. […]” for “fragmentation.”

[4] = molecular target: T4, MAP3K12 (Homo sapiens, UniProt Q12852)
T4 construct: endogenous in cells; host or cells: OVSAHO
T4 sequence (Q12852 1-859): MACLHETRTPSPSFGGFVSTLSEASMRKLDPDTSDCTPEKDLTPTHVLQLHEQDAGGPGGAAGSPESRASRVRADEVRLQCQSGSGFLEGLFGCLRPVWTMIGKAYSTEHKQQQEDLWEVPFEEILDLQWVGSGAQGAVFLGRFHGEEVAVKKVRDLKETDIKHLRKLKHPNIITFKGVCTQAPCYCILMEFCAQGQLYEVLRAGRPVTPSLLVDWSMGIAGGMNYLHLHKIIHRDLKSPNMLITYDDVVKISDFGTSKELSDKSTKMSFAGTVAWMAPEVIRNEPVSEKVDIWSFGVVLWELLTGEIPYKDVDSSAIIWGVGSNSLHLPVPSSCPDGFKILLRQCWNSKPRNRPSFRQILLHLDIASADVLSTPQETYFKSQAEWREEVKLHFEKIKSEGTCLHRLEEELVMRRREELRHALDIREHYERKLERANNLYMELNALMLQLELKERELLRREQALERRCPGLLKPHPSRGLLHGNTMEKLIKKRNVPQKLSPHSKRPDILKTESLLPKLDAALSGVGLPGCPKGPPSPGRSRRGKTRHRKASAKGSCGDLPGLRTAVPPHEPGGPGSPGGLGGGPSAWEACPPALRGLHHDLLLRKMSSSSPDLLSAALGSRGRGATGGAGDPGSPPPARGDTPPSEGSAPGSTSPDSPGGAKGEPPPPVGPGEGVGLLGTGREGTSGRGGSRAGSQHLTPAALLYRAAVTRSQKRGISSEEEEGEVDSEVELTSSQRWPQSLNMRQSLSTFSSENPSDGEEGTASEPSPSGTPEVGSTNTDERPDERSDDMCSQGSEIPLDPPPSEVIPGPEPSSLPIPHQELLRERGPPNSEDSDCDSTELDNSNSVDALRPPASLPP
Protocol: as §1, §2, §4
as §3, with “fragmentation. […]” for “fragmentation.”

T1 sequence (O75116 whole entry): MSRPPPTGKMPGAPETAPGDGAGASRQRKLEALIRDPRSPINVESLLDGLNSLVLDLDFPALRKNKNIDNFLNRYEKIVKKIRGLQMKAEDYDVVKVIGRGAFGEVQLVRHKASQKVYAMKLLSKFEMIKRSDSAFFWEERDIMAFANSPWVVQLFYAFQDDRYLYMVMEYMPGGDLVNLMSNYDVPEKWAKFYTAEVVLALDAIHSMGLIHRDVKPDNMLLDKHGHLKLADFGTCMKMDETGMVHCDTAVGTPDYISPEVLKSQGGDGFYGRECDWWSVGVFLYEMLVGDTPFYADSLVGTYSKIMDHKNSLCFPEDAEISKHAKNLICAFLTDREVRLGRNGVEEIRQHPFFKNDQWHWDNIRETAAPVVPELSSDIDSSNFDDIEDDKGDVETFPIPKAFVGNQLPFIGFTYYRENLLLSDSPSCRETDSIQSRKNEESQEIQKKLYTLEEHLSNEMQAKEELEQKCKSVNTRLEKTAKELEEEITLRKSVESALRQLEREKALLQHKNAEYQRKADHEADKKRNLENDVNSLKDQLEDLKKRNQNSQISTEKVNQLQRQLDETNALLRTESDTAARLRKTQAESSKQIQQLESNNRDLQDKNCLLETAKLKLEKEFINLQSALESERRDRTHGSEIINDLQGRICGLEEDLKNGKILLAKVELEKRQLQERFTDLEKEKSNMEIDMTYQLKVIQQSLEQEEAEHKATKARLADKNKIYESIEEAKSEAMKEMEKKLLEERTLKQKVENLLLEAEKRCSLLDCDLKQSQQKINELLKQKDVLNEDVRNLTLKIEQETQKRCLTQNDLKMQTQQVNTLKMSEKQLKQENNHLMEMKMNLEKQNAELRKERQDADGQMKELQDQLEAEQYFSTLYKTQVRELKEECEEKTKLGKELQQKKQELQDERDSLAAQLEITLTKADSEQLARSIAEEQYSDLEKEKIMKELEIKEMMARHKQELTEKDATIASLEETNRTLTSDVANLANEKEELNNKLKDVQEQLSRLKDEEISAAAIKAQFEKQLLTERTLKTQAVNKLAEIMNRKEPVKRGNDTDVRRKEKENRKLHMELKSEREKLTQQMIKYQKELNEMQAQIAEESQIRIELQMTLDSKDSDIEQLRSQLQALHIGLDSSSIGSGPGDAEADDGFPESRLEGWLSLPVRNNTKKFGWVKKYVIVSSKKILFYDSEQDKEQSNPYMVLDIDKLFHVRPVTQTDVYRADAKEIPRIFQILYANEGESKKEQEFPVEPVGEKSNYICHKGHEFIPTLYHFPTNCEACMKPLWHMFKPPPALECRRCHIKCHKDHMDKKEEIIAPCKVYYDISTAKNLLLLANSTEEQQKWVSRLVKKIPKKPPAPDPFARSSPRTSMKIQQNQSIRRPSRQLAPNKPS

Cc1[nH]nc2ccc(-c3cncc(OC[C@@H](N)Cc4ccccc4)c3)cc12 [A-674563]
MIB-binding of ROCK2 [1]: did not influence | MIB-binding of AAK1 [2]: inhibited | MIB-binding of CDK8 [3]: inhibited | MIB-binding of MAP3K12 [4]: inhibited
